Usually IC50 stands for the point on the concentration scale where inhibition reaches its midpoint.

Active and inactive are the calls of the source.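 Rule for the calls: active = toxic to mouse fibroblast host cells, with IC50 below 50 µM; inactive = the rest.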 Some results are limits rather than exact numbers.

The values below come from PubChem BioAssay AID1159561 (GlaxoSmithKline (GSK), 2015).

This assay concerns NIH-3T3 viability, ATP luminescence. Kind of assay: murine fibroblast viability via ATP level – cell-based, murine fibroblasts, cytotoxicity control for Trypanosoma cruzi inhibitor project (AID 1159561). Particulars: 4 days.
As for `Cn1nc([N+](=O)[O-])nc1N1CCCCC1`, the IC50 is > 50 µM (inactive). As for `CN(Cc1ccc(F)cc1)c1ccc(OCC(=O)N2CCCCC2c2cccnc2)nn1` (stereo not given), the figure is 10 µM.

Take `Cn1cc(CN2CCN(c3ccc4c(c3)CCN(C(=O)[C@H]3C[C@@H]3c3ccccc3)CC4)CC2)cn1`: the IC50 was 20 µM. For the molecule `Fc1ccc(OC2CC(NCc3cccc4cn[nH]c34)C2)cc1C(F)(F)F` (stereo not given), the IC50 was 13 µM. For `O=C(Cn1cnc2cc([N+](=O)[O-])ccc2c1=O)NCCc1ccc(Cl)cc1Cl`, the IC50 was > 50 µM (inactive). In the case of `CC(Cn1ccnc1)NC(=O)COc1ccc(Cl)c(Cl)c1` (stereo not given), the IC50 is > 50 µM (inactive). For `COc1ccc(NS(=O)(=O)c2cccc(NC(=O)c3cc(F)cc(F)c3)c2)cc1`, the IC50 was 25 µM.

For the molecule `CC(C)c1cc(C(=O)N2CCCC(c3cc4ncccc4[nH]3)C2)on1` (stereo not given), the IC50 was 20 µM. Turning to `CC(C)(C)C(Cn1ccnc1)NC(=O)c1ccc2nc(C3CC3)oc2c1` (stereo not given), the IC50 is > 50 µM (inactive). As for `O=C(C1CCCCC1)N1CCN(c2nnc(-c3ccccc3)c3ccccc23)CC1`, the IC50 was > 50 µM (inactive).

As to `CCN(CC)S(=O)(=O)c1ccc(Cn2nc(C(=O)Nc3ccncn3)c3ccccc32)cc1`, the IC50 is 40 µM. `COc1ccc(C(C)(C)C)cc1S(=O)(=O)n1ccnc1`: the IC50 is > 50 µM (inactive). Regarding `O=C(NC(c1ccc(Cl)cc1)c1cnccn1)C1CCN(C(=O)Nc2cccc(C(F)(F)F)c2)CC1` (stereo not given), the IC50 was 40 µM. As to `CC1CN(S(=O)(=O)c2ccc(NC(=O)c3cc(C4CC4)nc4c3cnn4C(C)C)cc2)CC(C)O1` (stereo not given), the IC50 is > 50 µM (inactive). As to `COc1ccc2nc(N(Cc3cccnc3)C(=O)C3CCC3)sc2c1`, the IC50 is 50 µM. With `CCCN(Cc1ccc(OC)c(OC)c1)Cc1cc(=O)c2c(C)cc(C)cc2[nH]1`, the IC50 is 32 µM. The value for `Cc1sc(C)c(C(F)(F)F)c1CNCCCNc1cc(=O)c2ccccc2[nH]1` was 10 µM; that for `Cc1ccc(C)c(OC2CCN(C(=O)C(C)n3ccnc3)CC2)c1` (stereo not given) was > 50 µM (inactive); that for `Cc1ccc(C)c(-n2nnnc2Sc2nc([N+](=O)[O-])nn2C)c1` was > 50 µM (inactive). `O=C(Nc1ncc([N+](=O)[O-])s1)C1CC1`: the IC50 was 32 µM. As for `COc1cccc(C(=O)[C@H]2C[C@@H]2CN(Cc2cccnc2)Cc2cccnc2)c1`, the IC50 is 20 µM. Turning to `CCCCNc1nccc(-c2c(-c3ccc(F)cc3)nn3c(N4CCOCC4)cccc23)n1`, the IC50 is 10 µM.

Consider `Cc1ccc2ccc(C(Nc3ccccn3)c3cccnc3)c(O)c2n1` (stereo not given), for which the IC50 was 10 µM.

Consider `O=C(Cn1cnc([N+](=O)[O-])n1)Nc1ccc(Cl)cc1C(=O)c1ccccc1`, for which the IC50 was > 50 µM (inactive).

For `CCC(c1ccc(F)cc1)n1cncc1-c1cnn(C)c1` (stereo not given), the IC50 was 25 µM. Turning to `CC(C)Oc1cccc(N2CCC(C(=O)N3CCCN(C(C)C)CC3)CC2)c1`, the IC50 is 32 µM.

On to `Cc1ccc(CNC2CCN(C[C@@H]3Cn4c(=O)ccc5ccc(=O)n3c54)CC2)cc1F`, for which the IC50 was 16 µM. As for `COc1ccc(NS(=O)(=O)c2cc(NC(=O)c3ccc([N+](=O)[O-])s3)ccc2OC)cc1`, the figure is > 50 µM (inactive); as for `O=C(c1cc2cc(Cl)ccc2[nH]1)N1CCCCC1c1cccnc1` (stereo not given), 40 µM. As for `Cc1ccccc1OCC(=O)N1CCCN(c2cccnn2)CC1`, the IC50 is 50 µM.

Regarding `CC(C)Oc1ccc(C(=O)Nc2ccc(N3CCOCC3)c(Cl)c2)cc1`, the IC50 is 10 µM. As for `Cc1nccn1C1CCCN(C(=O)c2cc3c(F)cccc3s2)C1` (stereo not given), the IC50 was 20 µM.

As for `O=C(NCCc1cccnc1)c1csc(-c2ccccc2)n1`, the IC50 is 50 µM. For `COc1cc(NC(=O)Nc2cccc(CNC(=O)OC3CCCCC3)c2)ccc1-c1cnco1`, the 50% inhibitory concentration (IC50) is 10 µM. Regarding `CS(=O)(=O)c1cccc(CNC(=O)c2cncc(N3CCN(c4ccc(F)cc4)CC3)c2)c1`, the IC50 is 25 µM. For `Cc1ccc2nc(N(Cc3cccnc3)C(=O)CCc3ccccc3)sc2c1`, the IC50 was 16 µM. As to `COc1ccc(S(=O)(=O)NCc2ccc(-c3ccc(CN(C)CCO)cc3)cc2)cc1`, the half-inhibitory concentration (IC50) was 16 µM. Regarding `CC(C(=O)Nc1ccccc1F)N(C)CC(=O)Nc1cccc2ccccc12` (stereo not given), the IC50 is 13 µM. As for `N#Cc1cccc(CN2CCC(N(Cc3cccnc3)C(=O)c3cc(F)c(F)cc3F)CC2)c1`, the IC50 was 20 µM.

For `OCCCNc1nc(Nc2ccncc2)nc2ccccc12`, the IC50 was > 50 µM (inactive). The value for `O=C(NCC1CCCCC1)c1cc(=O)c2ccccc2o1` was 32 µM; that for `O=C(NCCc1cccnc1)c1ccc(-c2ccccc2F)o1` was 40 µM.

As to `Cc1cc(N(C)C)nc2ccc(Cc3cnc(N)nc3N)cc12`, the half-maximal inhibitory concentration (IC50) was 10 µM.

For the molecule `CC(Cn1ccnc1)NC(=O)C1CC1c1cccc(Cl)c1Cl` (stereo not given), the IC50 is > 50 µM (inactive). With `CNc1cncc(C2CCCN2C(=O)Cc2coc3cc(C)ccc23)n1` (stereo not given), the IC50 was > 50 µM (inactive).

`CCC(=O)Nc1ccc(C(=O)Nc2ccccc2-c2ccccc2)cc1`: the IC50 is > 50 µM (inactive). In the case of `Clc1ccc(CN2CCN(C3=NCCN3)CC2)cc1Cl`, the IC50 is 40 µM.

Consider `NC(=O)c1ccccc1Nc1nc(NC2CCCCC2)nc2[nH]ccc12`, for which the IC50 was 25 µM.

Take `CN(C)Cc1ccc(-c2ccc(S(=O)(=O)NCC3CCCO3)c(F)c2)cc1` (stereo not given): the IC50 is 16 µM. As for `Cc1ccc(S(=O)(=O)Cn2nnnc2C(c2cccnc2)N2CCN(c3ccccc3)CC2)cc1` (stereo not given), the figure is 32 µM; as for `Clc1ccc(OCCN2CCCCC2c2cccnc2)c(Cl)c1` (stereo not given), 25 µM. `O=C(NC1C(=O)N(c2ccccc2)C1c1cccnc1)c1ccc(Cl)s1` (stereo not given): the IC50 is > 50 µM (inactive). The value for `COc1ccc(NS(=O)(=O)c2cc(-c3cc(C)[nH]n3)ccc2C)cc1OC` was > 50 µM (inactive); that for `CN1CCCN(C(=O)c2ccc(N3CCCC3)cc2Cl)CC1` was 25 µM. As for `CCn1nccc1CN(C)C(=O)C=Cc1ccc(Cl)cc1`, the figure is > 50 µM (inactive); as for `CC(Cn1ccnc1)NC(=O)C=Cc1ccc(Cl)cc1` (stereo not given), > 50 µM (inactive). As for `O=c1[nH]ccc2ccc(-c3ccncc3)cc12`, the IC50 is > 50 µM (inactive). As to `Cn1nc([N+](=O)[O-])nc1Oc1ccc(C(=O)c2ccccc2)cc1`, the IC50 is > 50 µM (inactive). Take `N#Cc1nc(C=Cc2ccccc2)oc1NCc1cccnc1`: the IC50 is 13 µM. Turning to `COc1ccccc1-c1c(C)[nH]c2nc(N)nc(C)c12`, the IC50 was > 50 µM (inactive). As for `Cc1nn(C)c(Cl)c1CN(Cc1cccnc1)Cc1ccsc1`, the figure is 20 µM; as for `O=C(c1ccc(OCCCc2cnc[nH]2)cc1)C1CC1`, 13 µM. Regarding `CN(C)c1ncc(-c2cncn2CCOc2ccc(Cl)cc2)cn1`, the IC50 is 40 µM. Regarding `Cc1cccc(N2CCCN(Cc3c[nH]c4ccccc34)CC2)n1`, the IC50 was 25 µM. With `Nc1ncnc2c1ncn2[C@@H]1O[C@H](CO)C[C@H]1O`, the IC50 was > 50 µM (inactive).

Take `CCOc1ccc(NC(=O)C=Cc2ccc(CC)o2)cc1`: the IC50 was 32 µM.

With `O=c1[nH]c(C=Cc2cccc(OCCOc3ccccc3)c2)nc(O)c1[N+](=O)[O-]`, the IC50 was > 50 µM (inactive). With `CCCc1nc2nc(N)nc(N)c2cc1CC`, the IC50 is 32 µM.

Take `CCN(C)Cc1ccc(N2CCC(NS(=O)(=O)c3ccc4c(c3)CCO4)CC2)nc1`: the IC50 is 13 µM. On to `c1cc(-c2ncc(-c3ccn[nH]3)s2)ccn1`, for which the IC50 was > 50 µM (inactive). As to `Clc1cc(Br)ccc1OCCCCn1ccnc1`, the IC50 is 16 µM. Consider `COc1ccc(-c2nc3ccncc3c(=O)n2CCOc2ccccc2)cc1`, for which the IC50 is 32 µM. With `CC1(Oc2cncc(Cl)c2)CCN(Cc2cc3ccccc3[nH]2)C1` (stereo not given), the IC50 was 10 µM.

As to `CCCC(=O)N(Cc1ccccn1)c1nc2ccccc2s1`, the IC50 was > 50 µM (inactive). Regarding `Cc1c(C#N)c([N+](=O)[O-])nn1Cc1cccc(Cl)c1Cl`, the IC50 was 40 µM. Consider `O=C(NCCNc1noc(-c2ccc([N+](=O)[O-])cc2)n1)c1ccc(Cl)cc1`, for which the IC50 was > 50 µM (inactive). As for `Cc1cc(C)nc(N2CCC(N(Cc3cccnc3)C(=O)c3cccc(C#N)c3)CC2)n1`, the IC50 was 7.9 µM.

For the molecule `CC(=O)Nc1nc(-c2cc(C)ccc2C)c(C)s1`, the IC50 was 25 µM. As for `CCOc1cnn(C)c(=O)c1Nc1ccc(C(=O)NCc2ccc(F)cc2)cc1`, the IC50 was > 50 µM (inactive). Consider `O=S(=O)(NCC(c1cccnc1)N1CCN(c2ccccc2F)CC1)c1ccc(F)cc1` (stereo not given), for which the IC50 was > 50 µM (inactive). As for `CCCCn1nnnc1CSc1nc(C)cc(C)c1C#N`, the figure is > 50 µM (inactive); as for `CC(C(=O)Nc1ccc(Br)cc1)N1CCN(c2ccc([N+](=O)[O-])cc2)CC1` (stereo not given), > 50 µM (inactive); as for `CN(Cc1nnnn1C1CCN(Cc2ccc(-n3ccnc3)cc2)CC1)c1ccc(F)cc1F`, 25 µM. For `OC1CCC(Nc2nccc(-c3sc(C4CCOCC4)nc3-c3ccc(F)c(F)c3)n2)CC1` (stereo not given), the IC50 was 40 µM. As to `CN(Cc1cc2ccccc2s1)c1ncc2c(N)nc(N)nc2n1`, the IC50 was 25 µM. As for `O=C(CSc1ccc(-c2ccccn2)nn1)Nc1ccc(Cl)cc1`, the half-inhibitory concentration (IC50) is 32 µM. With `O=C(Nc1ccc(Br)c(Cl)c1)Nc1ccc2c(c1)OCO2`, the IC50 was 16 µM. For the molecule `O=[N+]([O-])c1cccc(Nc2cncc(-c3ccccc3CO)c2)c1`, the IC50 was 40 µM. As for `Cn1c(CN2CCN(c3ncc(C(F)(F)F)cc3Cl)CC2)nc2ccncc21`, the figure is 10 µM; as for `Cc1ccc2sc(NC(=O)Cn3cnc([N+](=O)[O-])n3)nc2c1`, 50 µM.

As to `COc1cccc(CCNC(=O)C(c2cn[nH]c2)N2CCN(c3ccc(Cl)cc3)CC2)c1` (stereo not given), the IC50 was 32 µM. Regarding `CC(C)(C)C(O)(CCc1ccc(Cl)cc1)Cn1cncn1` (stereo not given), the IC50 is > 50 µM (inactive).

For `Cc1c(CNC(=O)c2ccc(Cn3cc(Cl)c([N+](=O)[O-])n3)cc2)cnn1C`, the IC50 was > 50 µM (inactive).

In the case of `Clc1ccc(C(CC2CCCCO2)Cn2cncn2)c(Cl)c1` (stereo not given), the IC50 was 40 µM. Consider `CNc1cc(C)nc(C2CN(C(=O)c3n[nH]c4ccccc34)CCO2)c1` (stereo not given), for which the IC50 is > 50 µM (inactive).
